Laboratory results as given in patent US4677126A, “Oxa-fenchyl esters and amides of alpha-L-aspartyl-D-phenylglycine” (The Procter & Gamble Company, priority 1986, dated 1987).
Square brackets hold non-standard residues; d marks the D form. Peptide text beside a SMILES is read from it. Phg = N[C@H](C(=O)O)c1ccccc1

Experiments:
[1] = literature / prior patents; cited from earlier work
[2] = Sweetness intensity relative to sucrose, taste panel; format: in vivo, human; conditions: based on informal panel testing
Source text: The sweetness intensity of the esters and amides of the present invention relative to sucrose can be determined according to the following procedure:
Male subjects are chosen at random from a group of about 20 persons who have previously been selected on the basis of proven tasting acuity, i.e., persons who could easily recognize the four basic tastes (sweet, sour, bitter and salty) and who are adept at quantifying their own physiological response numerically. The subjects are asked to taste and expectorate about 10 ml of a test sample (temperature of about 22° C.) having dissolved therein the ester or amide. […] Sweetness intensity of the test sample is recorded by the subject making a mark on the linear scale at a point they consider equal in sweetness among the standard samples; interpolation between standards is encouraged. After completion of the panel, a five point numeric scale is superimposed on the linear scales to obtain numerical data; data is averaged and recorded to the nearest 0.25 unit. Equivalent sucrose sweetness is determined by referring to graphs of (w/v) sucrose concentration in the standard samples versus a linear numeric scale.
Sweetness intensity is calculated by dividing the concentration (w/v) of perceived sweetness by the concentration (w/v) of the ester or amide required to produce that sweetness. […]

[3] = most carbonated beverages, pH about 2.5 to about 4.8; cited from earlier work

Structure (SMILES)	sweetness intensity, times that of sucrose [1]	taste quality [1]	other results
CC1CCCC(C)C1NC(=O)[C@@H](C)NC(=O)[C@@H](N)CC(=O)O (stereo partly drawn) [2,6-dimethylcyclohexyl]	600 times that of sucrose	–	–
C[C@@H](NC(=O)[C@@H](N)CC(=O)O)C(=O)NC1C(C)(C)S(=O)(=O)C1(C)C	1000 times that of sucrose	–	–
CC1CCC(C)C1NC(=O)[C@@H](C)NC(=O)[C@@H](N)CC(=O)O (stereo partly drawn) [2,5 dimethylcyclopentyl]	520 times that of sucrose	–	–
C[C@@H](NC(=O)[C@@H](N)CC(=O)O)C(=O)NC1C(C)(C)SC1(C)C [2,2,4,4-tetramethylthietan-3-yl]	2000 times that of sucrose	–	–
CC12CCC(O1)C(C)(C)C2OC(=O)[C@H](NC(=O)[C@@H](N)CC(=O)O)c1ccccc1 (stereo partly drawn) [Example 2, alpha-L-Aspartyl-D-phenylglycine-alpha-7-oxa-fenchyl ester]	–	–	Sweetness (× Sucrose) [2]: 1000 × Sucrose; Sweetness intensity ([2]; isolated diastereomer): approximately 1000 X
C[C@@H](NC(=O)[C@@H](N)CC(=O)O)C(=O)NC(C1CC1)C1CC1 [dicyclopropylcarbinyl]	1200 times that of sucrose	–	–
COC(=O)C(NC(=O)[C@@H](N)CC(=O)O)C(=O)OC1C2(C)CCC(C2)C1(C)C (stereo partly drawn) [methyl]	22,200-33,200 times that of sucrose	–	–
COC(=O)[C@@H](NC(=O)[C@@H](N)CC(=O)O)c1ccccc1 [methyl ester of L-aspartyl-L-phenylglycine] (H-Asp-[Phg]-OMe)	100-1000 times that of sucrose	quite sweet	–
CCOC(=O)C(NC(=O)[C@@H](N)CC(=O)O)C(=O)OC1C2(C)CCC(C2)C1(C)C (stereo partly drawn) [ethyl]	4200-5400 times that of sucrose	–	–
COC(=O)[C@H](Cc1ccccc1)NC(=O)[C@@H](N)CC(=O)O [aspartame, alpha-L-aspartyl-L-phenylalanine methyl ester] (H-Asp-Phe-OMe)	150-200 times that of sucrose	approaching that of sucrose	hydrolytic stability in carbonated beverages [3]: hydrolytically unstable
O=C1NS(=O)(=O)c2ccccc21 [Saccharin]	about 300 times that of sucrose	lingering bitter aftertaste	–
COC(=O)[C@@H](Cc1ccccc1)NC(=O)[C@@H](N)CC(=O)O [methyl ester of L-aspartyl-D-phenylalanine] (H-Asp-[dF]-OMe)	–	bitter	–
C[C@@H](NC(=O)[C@@H](N)CC(=O)O)C(=O)NC1C2(C)CCC(C2)C1(C)C (stereo partly drawn) [fenchyl]	320 times that of sucrose	–	–
